# Assays:
# A549 cells = experiment: Anti-proliferative effects in SRC-1 knockdown A549 cells; type: cell-based; details: SRC-1 knockdown vs control
# Protocol: FIG. 7W illustrates the anti-proliferative effects of EVG in SRC1 knockdown and control cells. Data represent mean±s.e.m. (n=3).
# After 6 days [or other time period as indicated] culture, cell viability was measured using CellTiter-Glo® Luminescent Cell Viability Assay (Promega, G7572) and DMSO group was used as normalization to calculate half maximal inhibitory concentration (IC50) using Graphpad Prism software.
# SRC-1 phase separation = biological target: T1, SRC-1 phase separation (Homo sapiens, UniProt Q15788); experiment: High content image of mScarlet-SRC-1 puncta in H1299 cells; type: cell-based; details: 20 μM
# T1 construct: expressed in transfected cells; host or cells: H1299
# T1 sequence (Q15788 whole entry): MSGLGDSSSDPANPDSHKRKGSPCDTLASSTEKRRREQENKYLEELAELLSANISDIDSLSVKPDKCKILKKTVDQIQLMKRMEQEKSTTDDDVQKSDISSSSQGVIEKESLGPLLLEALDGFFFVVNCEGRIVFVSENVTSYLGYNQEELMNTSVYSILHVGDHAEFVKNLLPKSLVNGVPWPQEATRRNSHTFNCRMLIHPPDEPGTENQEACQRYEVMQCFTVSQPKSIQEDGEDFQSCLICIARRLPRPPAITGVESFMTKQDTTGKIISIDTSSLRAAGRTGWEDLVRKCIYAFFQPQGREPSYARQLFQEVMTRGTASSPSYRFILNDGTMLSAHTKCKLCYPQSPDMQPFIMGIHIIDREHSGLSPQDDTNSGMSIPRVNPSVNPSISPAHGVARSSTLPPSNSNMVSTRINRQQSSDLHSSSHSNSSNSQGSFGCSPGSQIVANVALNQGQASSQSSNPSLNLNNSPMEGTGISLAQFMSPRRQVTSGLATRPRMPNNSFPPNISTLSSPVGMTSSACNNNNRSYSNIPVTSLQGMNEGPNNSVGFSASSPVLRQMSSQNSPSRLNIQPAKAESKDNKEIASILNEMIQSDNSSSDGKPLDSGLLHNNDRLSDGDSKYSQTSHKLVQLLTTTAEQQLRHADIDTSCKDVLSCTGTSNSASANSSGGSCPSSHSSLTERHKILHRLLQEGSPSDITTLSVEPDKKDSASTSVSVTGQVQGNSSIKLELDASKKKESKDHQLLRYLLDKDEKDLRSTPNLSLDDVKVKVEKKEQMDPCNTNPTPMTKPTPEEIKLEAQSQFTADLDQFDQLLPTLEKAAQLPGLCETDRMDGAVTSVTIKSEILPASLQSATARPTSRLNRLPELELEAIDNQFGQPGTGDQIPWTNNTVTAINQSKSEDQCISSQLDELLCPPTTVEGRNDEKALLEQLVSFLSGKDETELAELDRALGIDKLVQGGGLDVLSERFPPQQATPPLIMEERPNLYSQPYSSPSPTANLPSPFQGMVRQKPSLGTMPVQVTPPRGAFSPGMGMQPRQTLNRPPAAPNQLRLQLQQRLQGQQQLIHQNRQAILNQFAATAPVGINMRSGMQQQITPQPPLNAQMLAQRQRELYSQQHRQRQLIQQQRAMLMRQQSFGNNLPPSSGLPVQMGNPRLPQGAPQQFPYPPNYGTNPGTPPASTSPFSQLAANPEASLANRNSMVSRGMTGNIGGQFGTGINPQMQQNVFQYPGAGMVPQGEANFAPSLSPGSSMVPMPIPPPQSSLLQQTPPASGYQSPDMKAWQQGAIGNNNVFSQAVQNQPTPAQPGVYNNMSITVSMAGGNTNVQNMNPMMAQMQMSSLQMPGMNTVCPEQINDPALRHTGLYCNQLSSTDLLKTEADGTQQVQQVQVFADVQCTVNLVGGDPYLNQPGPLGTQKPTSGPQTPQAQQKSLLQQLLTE
# Protocol: FIG. 7Q illustrates quantification result of high content image data for mScarlet-SRC-1 puncta in H1299 cells treated w/o 20 μM EVG. ***p<0.001.
# Eight hours after transfection, H1299 cells expressing mScarlet-SRC-1 were seeded in 24-well glass bottom plate (Cellvis P24-1.5H-N) and EVG was added two hours later. Images were obtained with the Operetta CLSTM high-content cell imaging analysis system (PerkinElmer Inc., Waltham, MA, USA). The 63× objective lens was applied in each condition. Data was analyzed by images collected from over 100 representative fields in each group. The spots quantification was performed based on the area and intensity of the spots through mScarlet channel. GraphPad Prism is used to plot and analyze the high content image results.
# H3K27ac = experiment: ChIP-qPCR of histone modifications at YAP target regions; type: cell-based, human; details: SF268 cells
# Protocol: FIG. 7L illustrates analysis of indicated histone modifications at YAP targets regions #1 from SF268 cells treated with DMSO or EVG by ChIP-qPCR. Error bars show mean±s.e.m. (n=3), *p<0.05, ***p<0.001
# Briefly, cells were crosslinked with 1% formaldehyde (Sigma) in culture medium for 10 min at room temperature, and chromatin from lysed nuclei was sheared to 200-1000 bp fragments using a Bioruptor® Pico (Diagenode SA). ˜50 μg of sheared chromatin and ˜2 μg of antibody were mixed. Antibody/antigen complexes were recovered with ProteinG-Dynabeads (Invitrogen) for 1.5 h at 4° C. Quantitative real-time PCR was carried out with QuantStudio™ 6 Flex Real-Time PCR Systems (Thermofisher Scientific). The amount of immunoprecipitated DNA in each sample was determined as the fraction of the input, and normalized to the IgG control. PCR Primers are listed in Supplementary Table S2.
# Chromatin immunoprecipitation antibodies are listed in Supplementary […] Supplementary Methods. […] Quantitative real-time PCR was carried out with QuantStudio™ 6 Flex Real-Time PCR Systems (Thermofisher Scientific). The amount of immunoprecipitated DNA in each sample was determined as the fraction of the input, and normalized to the IgG control.
# BEAS-2B cell colonies = experiment: BEAS-2B colonies co-expressing SRC-1 and YAP; type: cell-based, human; details: SRC-1 and YAP co-expressed BEAS-2B cell colonies
# Text: FIG. 7X illustrates the colonies of BEAS-2B cells overexpressing with both YAP and SRC-1 treated w/o EVG.
# To explore whether SRC-1 and YAP cooperate in driving tumorigenesis, normal human lung bronchial epithelium cells (BEAS-2B) was transformed with YAP and/or SRC-1.
# SRC-1 = experiment: Biolayer interferometry (BLI); type: binding; details: biotin labeled EVG on streptavidin biosensors, purified SRC-1 protein
# Protocol: FIG. 7R illustrates bio-layer interferometry (BLI) assays were performed with purified SRC-1 protein and EVG. Biotin labeled EVG was immobilized on the streptavidin biosensors and dipped into wells containing increasing concentrations of SRC-1 protein.
# The binding between EVG and SRC1 was examined using BLI Octet RED96 (ForteEio Inc., Menlo Park, CA). Streptavidin biosensors (ForteBio Inc.) were pre-soaked (30 min) in assay buffer (20 mM TrisHCl pH8.0, 150 mM NaCl and 1% DMSO), then coated in an assay buffer containing 100 uM EVG-biotin for 7 min. As a control, sensors were incubated in an assay buffer containing 100 uM Biocytin, followed by a 6 min wash with assay buffer containing 1% BSA and 0.1% Tween20. Indicated concentrations of truncated SRC1protein ([…], 0 μg/ml) were diluted in assay buffer containing 1% BSA/0.1% Tween20 and flowed through biosensors coated with Bio-EVG or biocytin for 5 min. A 5 min dissociation was followed. Data was analyzed using OctetRED analysis software.
# YAP target genes = experiment: RNA-seq global gene expression profiles in SF268 cells; type: cell-based, human; details: 20 μM, 24 h
# Protocol: FIG. 7E illustrates SF268 cells treated with EVG were subjected to RNA-seq analysis. GSEA enrichment plots of genes involved in Hippo/YAP signaling.
# Total RNA of three biological replicates was extracted from SF268 cells 24 h after treated with 20 μM EVG/DMSO using TRIzol™ Reagent (15596018, Invitrogen). RNAseq libraries were prepared using the Illumina TruSeq RNA Sample Prep kit v2 and sequenced using the Illumina HiSeq Xten platform (150-bp paired-end reads). We mapped the RNA-seq sequencing reads to the human reference transcriptome (GRCh37.71) using HISAT259 version 2.0.1. Differentially expressed genes in elvitegravir-treatment group were identified with the R package DESeq.
# [1] = test system: SRC-1's binding with YAP and TEAD; experiment: FLAG pulldown assay with recombinant proteins; details: in vitro pulldown, concentrations up to 400 μM
# Protocol: FIG. 7N illustrates purified Flag-SRC-1 protein was mixed with YAP and/or TEAD4 in the presence of increasing concentrations of EVG and was subjected to three independent pull-downs using anti-flag beads.
# Three independent pull down assays were performed to detect the direct binding between SRC1 and YAP/TEAD4. Purified FLAG-SRC1 truncated proteins were incubated with YAP, TEAD4 and YAP plus TEAD4 respectively, and further subjected to pull down assays by ANTI-FLAG® M2 Affinity Gel (A2220, Sigma-Aldrich). Elvitegravir was co-incubated with the mixtures at increasing concentrations (0, 50, 200, 400 μM) as indicated. Complexes were washed in PBS buffer and proteins were eluted using 2×SDS loading buffer.
smiles,measurement,setting,value
"COc1cc2c(cc1Cc1cccc(Cl)c1F)c(=O)c(C(=O)O)cn2[C@H](CO)C(C)C [EVG, 6-[(3-chloro-2-fluorophenyl)methyl]-1-[(2S)-1-hydroxy-3-methylbutan-2-yl]-7-methoxy-4-oxoquinoline-3-carboxylic acid]",anti-proliferative effects after inducible knockdown of SRC-1,A549 cells,partially resistant
same,"SRC-1 phase separation, high content image (mScarlet-SRC-1 puncta)",SRC-1 phase separation,inhibitory effects
same,H3K27ac mark levels at YAP target genes,H3K27ac,reducing
same,migratory activity at the outer colony border,BEAS-2B cell colonies,dramatically inhibited
same,binding to SRC-1 (BLI),SRC-1,directly binds
same,"YAP target genes, global gene expression profiles",YAP target genes,downregulates
same,SRC-1's binding with YAP and TEAD,[1],did not affect
